Source: patent publication US10165791B2, “Use of rubusoside for reducing or suppressing certain unpleasant taste impressions” (Symrise AG, priority 2010, dated 2019)

B1: miraculin: protein that in the presence of acids transforms the sour impression into a sweet taste impression (protein, UniProt P13087 30-220, looked up)
Miraculin: DSAPNPVLDIDGEKLRTGTNYYIVPVLRDHGGGLTVSATTPNGTFVCPPRVVQTRKEVDHDRPLAFFPENPKEDVVRVSTDLNINFSAFMPCRWTSSTVWRLDKYDESTGQYFVTIGGVKGNPGPETISSWFKIEEFCGSGFYKLVFCPTVCGSCKVKCGDVGIYIDQKGRRRLALSDKPFAFEFNKTVYF

Tests used:
[1] = own tests: taste of rubusoside in water; assay type: in vivo, human
Experimental: It is known that extracts from Rubus suavissimus or certain compounds isolated therefrom are able to make sweet-tasting orally consumable preparations taste even sweeter, as described in WO 2008/049256. Moreover, it is known that isolated rubusoside from Rubus suavissimus tastes perceptibly sweet starting from a concentration of approx. 25 mg/kg (equivalent to 25 ppm) (taste recognition threshold). Rubusoside can be used as a sweetener (Hirono, S.; Chou, W. H.; Kasai, R.; Tanaka, O.; Tada, T., Sweet and bitter diterpene glucosides from leaves of Rubus suavissimus. Chemical & Pharmaceutical Bulletin 1990, 38, (6), 1743-1744).

[2] = Reduction of astringent and sour impression, panel of trained tasters; assay type: in vivo, human; conditions: Yogurt 0.1% fat; 10 mg/kg rubusoside
Experimental: The following products, in each case without and with a flavoring composition, were assessed by a panel of trained tasters. The astringent impression and sour impression were assessed on a scale from 1 (not perceptible) to 9 (very strong) and averaged for the tasters.

[3] = isolated rubusoside from Rubus suavissimus; equivalent to 25 ppm; cited from earlier work
[4] = in the presence of acids; cited from earlier work

Row | Molecule | sweet taste equivalent to the sweetness of an aqueous sucrose solution ([1]; 100 mg/kg (100 ppm) in water) | concentration above which a recognizably bitter taste is additionally displayed ([1]; in water) | Astringent impression (0-9) b) with test substance [2] | Sour impression (0-9) b) with test substance [2] | taste recognition threshold (tastes perceptibly sweet starting from) [3] | duration of the conversion of sour impression to sweet taste [4]
1 | C=C1C[C@@]23CC[C@H]4[C@@](C)(CCC[C@@]4(C)C(=O)O[C@@H]4O[C@H](CO)[C@@H](O)[C@H](O)[C@H]4O)[C@@H]2CC[C@]1(O[C@@H]1O[C@H](CO)[C@@H](O)[C@H](O)[C@H]1O)C3 [rubusoside, Rubusoside] | 1.4% | > 100 mg/kg | 5 | 5.5 | approx. 25 mg/kg | –
2 | B1 | – | – | – | – | – | 2 to 4 h
